Laboratory results from US9849110B2, “Intermittent fibrate administration method” (Biocopea Limited, priority 2012, dated 2017).

How the values were obtained:
[1] = Example 2: blood test of LDL, HDL and cholesterol levels, periodic treatment with atorvastatin, person; type: in vivo, human; conditions: 40 mg orally, one week on / a month off, after six months
[2] = Example 3: blood test of LDL, HDL and cholesterol levels, periodic treatment with fluvastatin, person; type: in vivo, human
Procedure: A person visits their physician and during the visit undergoes a blood test. The person is found to have an LDL level of 87 mg/dl, HDL level of 41 mg/dl and a cholesterol level of 266 mg/dl. […] To remind the person to take fluvastatin following the two month breaks, the physician inputs the days that the person is to take fluvastatin and arranges for the person to receive text messages through Skype that the person will receive on their cell phone and their personal computer. Two months after taking the first weeks dose of atorvastatin, the person receives a reminder by text to take the second weeks dose of atorvastatin two months later. This repeats every two months. The person returns to the physician for a follow on blood test six months later and they are found to have LDL level of 112 mg/dl, HDL level of 47 mg/dl and a cholesterol level of 188 mg/dl. At this point the physician changes the frequency of dosing to one week taking fluvastatin followed by a break of three months at a dose of 40 mg, with this schedule repeating thereafter. The physician inputs the new schedule so that the person receives text messages every three months to restart taking fluvastatin. A year later, the person returns to the physician for a blood test. […] The physician recommends that the person continue to take fluvastatin for a week followed by a three month break and repeating this schedule thereafter, which the person does. A year later the person returns to the physician for a blood test. […] The person continues taking the atorvastatin for a week followed by a three month break and repeating this schedule for the rest of their life, with their LDL levels ranging from 115-120, HDL levels ranging from 45-51 and their cholesterol levels ranging from 151-162.

[3] = Example 4: blood test of LDL, HDL and cholesterol levels, periodic treatment with lovastatin, person; type: in vivo, human
Procedure: A person visits their physician and during the visit undergoes a blood test. The person is found to have an LDL level of 91 mg/dl, HDL level of 40 mg/dl and a cholesterol level of 222 mg/dl. […] To remind the person to take lovastatin after each four month break, the physician inputs the days that the person is to take lovastatin and arranges for the person to receive a letter by postal mail to remind them to take the lovastatin. Four months after taking the first weeks dose of lovastatin, the person receives a reminder by postal mail to take the second weeks dose. This repeats on an every four month basis. The person returns to the physician for a follow on blood test one year later and they are found to have LDL level of 109 mg/dl, HDL level of 45 mg/dl and a cholesterol level of 184 mg/dl. The person continues taking the atorvastatin for a week followed by a break of four months, which they repeat for the rest of their life, with their LDL levels ranging from 115-120, HDL levels ranging from 45-51 and their cholesterol levels ranging from 151-162.

[4] = Example 2: blood test of LDL, HDL and cholesterol levels, periodic treatment with atorvastatin, person; type: in vivo, human; conditions: for HDL level / LDL level / cholesterol level: one week on / two months off
Procedure: A person visits their physician and during the visit undergoes a blood test. The person is found to have an LDL level of 92 mg/dl, HDL level of 41 mg/dl and a cholesterol level of 212 mg/dl. […] To remind the person to take atorvastatin after the monthly breaks, they download an application to their smart phone and inputs the first day they are to take atorvastatin and the application automatically determines the day a month after stopping taking atorvastatin that they are to start taking the atorvastatin again. A month after taking the first weeks dose of atorvastatin, the person receives a reminder from the application on their smart phone to take the second dose of atorvastatin. This repeats on a monthly basis. The person returns to the physician for a follow on blood test six months later and they are found to have LDL level of 120 mg/dl, HDL level of 45 mg/dl and a cholesterol level of 161 mg/dl. At this point the physician changes the frequency of the breaks between week of dosing to every two months, while maintaining the dose of 20 mg. The person inputs the new schedule into the application on their smart phone and they are reminded to take atorvastatin every two month by the application. Six months later, the person returns to the physician for a blood test. […] The physician recommends that the person continue to take atorvastatin for a week followed by a two month break, which the person does. A year later the person returns to the physician for a blood test. […] The person continues taking the atorvastatin for a week every two months for the rest of their life, with their LDL levels ranging from 115-120, HDL levels ranging from 45-51 and their cholesterol levels ranging from 151-162.

[5] = Example 5: blood test of LDL, HDL and cholesterol levels, periodic treatment with gemfibrozil, person; type: in vivo, human
Procedure: A person visits their physician and during the visit undergoes a blood test. The person is found to have an LDL level of 74 mg/dl, HDL level of 32 mg/dl and a cholesterol level of 311 mg/dl. The physician prescribes gemfibrozil at an initial dose of 600 mg taken orally for one week followed by a one month break, followed by a week of taking gemfibrozil followed by a month break, which schedule is repeated thereafter. To remind the person to take gemfibrozil after the monthly break, the physician inputs the days that the person is to take gemfibrozil and arranges for the person to receive text messages through their cell phone and a telephone call to remind them to take gemfibrozil. One month after taking the first weeks dose of gemfibrozil, the person receives a reminder by text to take the second weeks dose of gemfibrozil. This repeats on a monthly basis. The person returns to the physician for a follow on blood test six months later and they are found to have LDL level of 101 mg/dl, HDL level of 41 mg/dl and a cholesterol level of 211 mg/dl. The physician recommends that the person continue to take gemfibrozil for a week followed by a month break, which the person does on a repeated basis. A year later the person returns to the physician for a blood test.

[6] = meta-analysis of clinical trials; cited from earlier work
[7] = once monthly administration (so in the source)
[8] = one week on / three month break, for the rest of their life, in mg/dL
[9] = one week on / four months off, for the rest of their life, in mg/dL
[10] = a week every two months, for the rest of their life, in mg/dL
[11] = dose of 20 mg, after six months
[12] = 600 mg orally, one week on / one month off, after six months
[13] = one week on / one month off, a year later
[14] = one week on / one month off, for the rest of their life, in mg/dL
[15] = 40 mg, one week on / four months off, one year later

## CC(C)c1c(C(=O)Nc2ccccc2)c(-c2ccccc2)c(-c2ccc(F)cc2)n1CC[C@@H](O)C[C@@H](O)CC(=O)O [atorvastatin]
[1]
  HDL level: 45 mg/dL
  LDL level: 120 mg/dL
  cholesterol level: 161 mg/dL
[2]; [7]
  maintaining normal levels of LDL, HDL and cholesterol: successful at maintaining normal levels of LDL, HDL and cholesterol
[2]; [8]
  HDL levels ranging: 45-51
  LDL levels ranging: 115-120
  cholesterol levels ranging: 151-162
[3]; [9]
  HDL levels ranging: 45-51
  LDL levels ranging: 115-120
  cholesterol levels ranging: 151-162
[4]; [10]
  HDL levels ranging: 45-51
  LDL levels ranging: 115-120
  cholesterol levels ranging: 151-162
[4]; [11]
  HDL level: 48 mg/dL
  LDL level: 120 mg/dL
  cholesterol level: 160 mg/dL
[4]; [7]
  maintaining normal levels of LDL, HDL and cholesterol: successful at maintaining normal levels of LDL, HDL and cholesterol
[4]; a year later
  HDL level: 48 mg/dL
  LDL level: 118 mg/dL
  cholesterol level: 161 mg/dL
[5]; once monthly administration
  maintaining normal levels of LDL, HDL and cholesterol: successful at maintaining normal levels of LDL, HDL and cholesterol

## COCc1c(C(C)C)nc(C(C)C)c(/C=C/[C@@H](O)C[C@@H](O)CC(=O)O)c1-c1ccc(F)cc1 [cerivastatin]
[6]
  rhabdomyolysis: rhabdomyolysis did not occur

## Cc1ccc(C)c(OCCCC(C)(C)C(=O)O)c1 [gemfibrozil]
[5]; [12]
  HDL level: 41 mg/dL
  LDL level: 101 mg/dL
  cholesterol level: 211 mg/dL
[5]; [13]
  HDL level: 44 mg/dL
  LDL level: 106 mg/dL
  cholesterol level: 191 mg/dL
[5]; [14]
  HDL levels ranging: 45-51
  LDL levels ranging: 115-120
  cholesterol levels ranging: 151-162

## CC[C@H](C)C(=O)O[C@H]1C[C@@H](C)C=C2C=C[C@H](C)[C@H](CC[C@@H]3C[C@@H](O)CC(=O)O3)[C@H]21 [lovastatin]
[3]; [15]
  HDL level: 45 mg/dL
  LDL level: 109 mg/dL
  cholesterol level: 184 mg/dL
[3]; once every four month administration
  maintaining normal levels of LDL, HDL and cholesterol: successful at maintaining normal levels of LDL, HDL and cholesterol
